Data published in ChEMBL document CHEMBL3994634, “Synthesis of new chromeno-carbamodithioate derivatives and preliminary evaluation of their antioxidant activity and molecular docking studies” (Bioorg Med Chem Lett, 2017).

Experiments:
[1] = Antioxidant activity assessed as […] radical scavenging activity by spectrophotometric method relative to control; format: functional; parameters: concentration or dose not given beside the values
[2] = Antioxidant activity assessed as inhibition of […] radical by spectrophotometric method; format: functional

SMILES	Activity [1] [%]	IC50 [2] [µM]
O=C1O[C@H]([C@@H](O)CO)C(O)=C1O [ASCORBIC ACID]	30.4	1640
Cc1oc2cc(OCC(O)CSC(=S)N3CCN(Cc4ccc5c(c4)OCO5)CC3)ccc2c(=O)c1C (stereo not given)	36.8	1380
CCN(CC)C(=S)SCC(O)COc1ccc2c(=O)c(C)c(C)oc2c1 (stereo not given)	29.5	1710
Cc1oc2cc(OCC(O)CSC(=S)N3CCC(Cc4ccccc4)CC3)ccc2c(=O)c1C (stereo not given)	31.8	1570
Cc1oc2cc(OCC(O)CSC(=S)N3CCN(c4ccc(F)cc4)CC3)ccc2c(=O)c1C (stereo not given)	24.8	2040
COc1ccccc1N1CCN(C(=S)SCC(O)COc2ccc3c(=O)c(C)c(C)oc3c2)CC1 (stereo not given)	31.6	1590
Cc1oc2cc(OCC(O)CSC(=S)N3CCN(c4ccccc4)CC3)ccc2c(=O)c1C (stereo not given)	24.8	2240
Cc1oc2cc(OCC(O)CSC(=S)N3CCN(C)CC3)ccc2c(=O)c1C (stereo not given)	29.4	1720
Cc1oc2cc(OCC(O)CSC(=S)N3CCN(C(c4ccccc4)c4ccccc4)CC3)ccc2c(=O)c1C (stereo not given)	30.9	1620
Cc1oc2cc(OCC(O)CSC(=S)N3CCOCC3)ccc2c(=O)c1C (stereo not given)	35.6	1400
